Data: PubChem BioAssay (NCI)
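Step 1: Grow cells in 96-well plates. Step 2: Expose to compound for 48 hours at 5 concentrations. Step 3: Interpolate endpoints linearly; if unreached, use highest concentration. The concentration for full growth arrest is given as TGI.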

What was measured:
Assay in all cases: NCI anticancer screen, dose series, 48 h
SR leukemia = test system: SR leukemia
A498 renal = test system: A498 renal
NCI-H522 lung = test system: NCI-H522 lung
SN12C renal = test system: SN12C renal
IGROV1 ovarian = test system: IGROV1 ovarian
HT29 colon = test system: HT29 colon
HCT-116 colon = test system: HCT-116 colon
SK-MEL-28 melanoma = test system: SK-MEL-28 melanoma
UACC-62 melanoma = test system: UACC-62 melanoma
MDA-MB-435 = test system: MDA-MB-435
HL-60(TB) leukemia = test system: HL-60(TB) leukemia
SF-268 CNS = test system: SF-268 CNS
SNB-19 CNS = test system: SNB-19 CNS
MOLT-4 leukemia = test system: MOLT-4 leukemia
NCI-H23 lung = test system: NCI-H23 lung
ACHN renal = test system: ACHN renal
HCC-2998 colon = test system: HCC-2998 colon
U251 CNS = test system: U251 CNS
LOX IMVI melanoma = test system: LOX IMVI melanoma
UACC-257 melanoma = test system: UACC-257 melanoma

Row | Compound | TGI (SR leukemia) | TGI (A498 renal) | TGI (NCI-H522 lung) | TGI (SN12C renal) | TGI (IGROV1 ovarian) | TGI (HT29 colon) | TGI (HCT-116 colon) | TGI (SK-MEL-28 melanoma) | TGI (UACC-62 melanoma) | TGI (MDA-MB-435) | TGI (HL-60(TB) leukemia) | TGI (SF-268 CNS) | TGI (SNB-19 CNS) | TGI (MOLT-4 leukemia) | TGI (NCI-H23 lung) | TGI (ACHN renal) | TGI (HCC-2998 colon) | TGI (U251 CNS) | TGI (LOX IMVI melanoma) | TGI (UACC-257 melanoma)
1 | COC(=O)/C(=C\c1cn(C(C)=O)c2ccccc12)P(=O)(OC)OC | > 100 µM | 31.4 µM | 23.2 µM | 28 µM | 44.9 µM | 29.7 µM | 28 µM | 55.1 µM | 31.1 µM | 64.7 µM | > 100 µM | 54 µM | 32 µM | > 100 µM | 30.2 µM | 25.4 µM | 30.4 µM | 29.5 µM | 20.3 µM | –
2 | CC(C)c1nc2c(Cl)c3ncccc3cc2[nH]c1=O | > 100 µM | > 100 µM | > 100 µM | > 100 µM | > 100 µM | > 100 µM | > 100 µM | > 100 µM | > 100 µM | > 100 µM | > 100 µM | > 100 µM | > 100 µM | > 100 µM | > 100 µM | > 100 µM | – | > 100 µM | – | > 100 µM
3 | CCN1C[C@]2(C)CC[C@H](OCc3ccccc3)C34C5C[C@@H]6CC[C@](O)(C(C[C@@H]32)C14)C5[C@H]6OCc1ccccc1 (some centres not stated) | > 100 µM | > 100 µM | – | > 100 µM | > 100 µM | > 100 µM | > 100 µM | > 100 µM | > 100 µM | > 100 µM | – | > 100 µM | > 100 µM | > 100 µM | > 100 µM | > 100 µM | > 100 µM | > 100 µM | > 100 µM | > 100 µM
4 | Nc1ccccc1OCc1cc(=O)c(OCc2ccccc2)co1 | > 100 µM | – | – | 0.823 µM | – | > 100 µM | > 100 µM | > 100 µM | 4.49 µM | > 100 µM | > 100 µM | > 100 µM | > 100 µM | > 100 µM | > 100 µM | > 100 µM | – | > 100 µM | > 100 µM | 81.7 µM
5 | CC(=O)OC[C@@H](OC(C)=O)[C@@H](OC(C)=O)[C@H]1OC[C@@H]2C[C@H]([C@H]1OC(C)=O)N(Cc1ccccc1)O2 | > 100 µM | – | – | > 100 µM | > 100 µM | > 100 µM | > 100 µM | > 100 µM | > 100 µM | > 100 µM | > 100 µM | > 100 µM | > 100 µM | > 100 µM | > 100 µM | > 100 µM | > 100 µM | > 100 µM | > 100 µM | > 100 µM
6 | N#C/C(=C\c1ccc(Br)cc1)c1nc(-c2cc3ccccc3oc2=O)cs1 | > 50 µM | – | 16.1 µM | > 50 µM | > 50 µM | > 50 µM | > 50 µM | > 50 µM | 23.7 µM | > 50 µM | > 50 µM | > 50 µM | 24.1 µM | > 50 µM | – | 26.1 µM | > 50 µM | 20.1 µM | > 50 µM | 33.2 µM
